Data: patent publication US20190375708A1 (VenatoRx Pharmaceuticals, Inc., priority 2018, published 2019)

Key:
[1] = system: HBV replication in HepAD38 cells; assay: Anti-HBV replication assay in HepAD38 cells (QPCR of extracellular HBV DNA); format: cell-based, HBV (genotype D, serotype ayw); conditions: Hepatitis B virus, 168 h, 7 days incubation, extracellular HBV DNA by QPCR, read-out: Anti-HBV EC50
Procedure, shortened: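 Read-out is QPCR of HBV DNA released into culture supernatant, converted to percent of vehicle control and fitted to give EC50. Cells were HepAD38 induced by tetracycline removal and dosed […] for 7 days.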

[2] = In vitro cytotoxicity assay (MTT cell viability) in HepG2 cells; format: cell-based, human; conditions: human
Procedure, shortened: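 Viability measured by MTT conversion, absorbance at 492 nm, as percent of vehicle-treated wells. Compounds spanned 30 μM to 1.0 nM in half-log steps over a 7-day exposure of parental HepG2 cells; CC50 derived by 4-parameter curve fit.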

SMILES	EC50 [1]	CC50 at 7 days [2]
Cc1cc(NC(=O)c2c(C)c(C(=O)C(=O)NC3CCC(F)(F)CC3)n(C)c2C)ccc1F [Example 250, 5-(2-((4,4-difluorocyclohexyl)amino)-2-oxoacetyl)-N-(4-fluoro-3-methylphenyl)-1,2,4-trimethyl-1H-pyrrole-3-carboxamide]	< 50 nM	5000 to 30000 nM
Cc1cc(NC(=O)c2c(C)c(C(=O)C(=O)N[C@H]3[C@@H]4CN(S(C)(=O)=O)C[C@@H]43)n(C)c2C)ccc1F [Example 644, N-(4-fluoro-3-methylphenyl)-1,2,4-trimethyl-5-(2-(((1R,5S,6s)-3-(methylsulfonyl)-3-aabicyclo[3.1.0]hexan-6-yl)amino)-2-oxoacetyl)-1H-pyrrole-3-carboxamide]	< 50 nM	5000 to 30000 nM
Cc1cc(NC(=O)c2cc(C(=O)C(=O)NC(C)(C)CO)n3c2CCCC3)ccc1F [Example 411, N-(4-fluoro-3-methylphenyl)-3-(2-((1-hydroxy-2-methylpropan-2-yl)amino)-2-oxoacetyl)-5,6,7,8-tetrahydroindolixzine-1-carboxamide]	50 to 499 nM	> 30000 nM
Cc1c(C(=O)Nc2cccc(Cl)c2)c(C)n(C)c1C(=O)C(=O)NC(C)(C)CO [Example 600, N-(3-chlorophenyl)-5-(2-((1-hydroxy-2-methylpropan-2-yl)amino)-2-oxoacetyl)-1,2,4-trimethyl-1H-pyrrole-3-carboxamide]	< 50 nM	> 30000 nM
Cc1c(C(=O)Nc2ccc(F)c(F)c2)c2n(c1C(=O)C(=O)NC1(c3nn[nH]n3)CCCC1)CCCC2 [Example 743, 3-(22-((1-(2H-tetrazol-5-yl)cyclopentyl)amino)-2-oxoacetyl)-N-(3,4-difluorophenyl)-2-methyl-5,6,7,8-tetrahydroindolizine-1-carboxamide]	50 to 499 nM	> 30000 nM
Cc1cc(NC(=O)c2c(C)c(C(=O)C(=O)N[C@@H](C(N)=O)C3CCCCC3)n(C)c2C)ccc1F [Example 102, (R)-5-(2-((2-amino-1-cyclohexyl-2-oxoethyl)amino)-2-oxoacetyl)-N-(4-fluoro-3-methylphenyl)-1,2,4-trimethyl-1H-pyrrole-3-carboxamide]	< 50 nM	500 to 4990 nM
Cc1cc(NC(=O)c2c(C)c(C(=O)C(=O)NCC(O)c3ccsc3)n(C)c2C)ccc1F (stereo not shown) [Example 648, N-(4-fluoro-3-methylphenyl)-5-(2-((2-hydroxy-22-(thiophen-3-yl)ethyl)amino)-2-oxoacetyl)-1,2,4-trimethyl-1H-pyrrole-3-carboxamide]	< 50 nM	> 30000 nM
Cc1cc(NC(=O)c2c(C)c(C(=O)C(=O)Nc3ccc(F)nc3)n(C)c2C)ccc1F [Example 212, N-(4-fluoro-3-methylphenyl)-5-(2-((6-fluoropyridin-3-yl)amino)-2-oxoacetyl)-1,2,4-trimethyl-1H-pyrrole-3-carboxamide]	< 50 nM	5000 to 30000 nM
Cc1cc(NC(=O)c2c(C)c(C(=O)C(=O)NC3(C)CC[C@@H](O)[C@@H](O)C3)n(C)c2C)ccc1F (stereo partly drawn) [Example 702, 5-(2-(((3S,4R)-3,4-dihydroxy-1-methylcyclohexyl)amino)-2-oxoacetyl)-N-(4-fluoro-3-methylphenyl)-1,2,4-trimethyl-1H-pyrrole-3-carboxamide]	< 50 nM	> 30000 nM
Cc1cc(NC(=O)c2c(C)c(C(=O)C(=O)N[C@@H]3C[C@H](O)[C@@H](O)[C@H]3O)n(C)c2C)ccc1F [Example 712, N-(4-fluoro-3-methylphenyl)-1,2,4-trimethyl-5-(2-oxo-2-(((1R,2S,3R,4S)-2,3,4-trihydroxycyclopentyl)amino)acetyl)-1H-pyrrole-3-carboxamide]	< 50 nM	> 30000 nM
O=C(N[C@H]1C[C@H](O)C1)C(=O)c1c(Cl)c(C(=O)Nc2ccc(F)c(F)c2)c2n1CCCC2 [Example 533, 2-chloro-N-(3,4-difluorophenyl)-3-(2-(((1r,3r)-3-hydroxycyclobutyl)amino)-2-oxoacetyl)-5,6,7,8-tetrahydroindolizine-1-carboxamide]	500 to 1000 nM	> 30000 nM
Cc1cc(NC(=O)c2c(C)c(C(=O)C(=O)N[C@H](C(N)=O)[C@H](C)O)n(C)c2C)ccc1F [Example 57, 5-(2-(((2S,3S)-1-amino-3-hydroxy-1-oxobutan-2-yl)amino)-2-oxoacetyl)-N-(4-fluoro-3-methylphenyl)-1,2,4-trimethyl-1H-pyrrole-3-carboxamide]	50 to 499 nM	> 30000 nM
Cc1noc([C@H](C)NC(=O)C(=O)c2c(Cl)c(C(=O)Nc3ccc(F)c(C)c3)c3n2CCCC3)n1 [Example 494, (S)-2-chloro-N-(4-fluoro-3-methylphenyl)-3-(2-((1-(3-methyl-1,2,4-oxadiazol-5-yl)ethyl)amino)-2-oxoacetyl)-5,6,7,8-tetrahydroindolizinee-1-carboxamide]	< 50 nM	5000 to 30000 nM
Cc1c(C(=O)Nc2ccc(F)cn2)c(C)n(C)c1C(=O)C(=O)NC12CC3CC(CC1C3)C2 [Example 135, N-(5-fluoropyridin-2-yl)-5-(2-(((2R,3as,5S,6as)-hexahydro-2,5-methanopentalen-3a(1H)-l)amino)-2-oxoacetyl)-1,2,4-trimethyl-1H-pyrrole-3-carboxamide]	50 to 499 nM	5000 to 30000 nM
CCn1c(C)c(C(=O)Nc2ccc(F)c(C)c2)c(C)c1C(=O)C(=O)NC1(C(F)(F)F)CCOCC1 [Example 285, 1-ethyl-N-(4-fluoro-3-methylphenyl)-2,4-dimethyl-5-(2-oxo-2-((4-(trifluoromethyl)tetrahydro-2H-pyran-4-yl)amino)acetyl)-1H-pyrrole-3-carboxamide]	< 50 nM	> 30000 nM
Cc1c(C(=O)Nc2ccc(F)c(F)c2)c2n(c1C(=O)C(=O)NC1(CO)CC1)CCCC2 [Example 463, N-(3,4-difluorophenyl)-3-(2-((1-(hydroxymethyl)cyclopropyl)amino)-2-oxoacetyl)-2-methyl-5,6,7,8-tetrahydroindolizine-1-carboxamide]	50 to 499 nM	5000 to 30000 nM
Cc1cc(NC(=O)c2c(C)c(C(=O)C(=O)NC(CC(C)C)c3nn[nH]n3)n(C)c2C)ccc1F (stereo not shown) [Example 80, N-(4-fluoro-3-methylphenyl)-1,2,4-trimethyl-5-(2-((3-methyl-1-(2H-tetrazol-5-yl)butyl)amino)-2-oxoacetyl)-1H-pyrrole-3-carboxamide]	50 to 499 nM	> 30000 nM
Cc1cc(NC(=O)c2c(Cl)c(C(=O)C(=O)NCC(C)(C)O)n3c2CCCC3)cnc1F [Example 529, 2-chloro-N-(6-fluoro-5-methylpyridin-3-yl)-3-(2-((2-hydroxy-2-methylpropyl)amino)-2-oxoacetyl)-5,6,7,8-tetrahydroindolizine-1-carboxamide]	> 1000 nM	> 30000 nM
Cc1cc(NC(=O)c2c(Cl)c(C(=O)C(=O)NC(C)(C)CO)n3c2CCCC3)cnc1F [Example 508, 2-chloro-N-(6-fluoro-5-methylpyridin-3-yl)-3-(2-((1-hydroxy-2-methylpropan-2-yl)amino)-2-oxoacetyl)-5,6,7,8-tettrahydroindolizine-1-carboxamide]	500 to 1000 nM	> 30000 nM
Cc1cc(NC(=O)c2c(C)c(C(=O)C(=O)NC(C)(C)CN3CCOCC3)n(C)c2C)cnc1F [Example 351, N-(6-fluoro-5-methylpyridin-3-yl)-1,2,4-trimethyl-5-(2-((2-methyl-1-morpholiinopropan-2-yl)amino)-2-oxoacetyl)-1H-pyrrole-3-carboxamide]	50 to 499 nM	> 30000 nM
Cc1cc(NC(=O)c2c(C)c(C(=O)C(=O)NC3(CO)CC(F)(F)C3)n3c2CCCC3)ccc1F [Example 441, 3-(2-((3,3-difluoro-1-(hydroxymethyl)cyclobutyl)amino)-2-oxoacetyl)-N-(4-fluoro-3-methylphenyl)-2-methyl-5,6,7,8-tetrahydroindolizine-1-carboxamide]	< 50 nM	5000 to 30000 nM
CCn1c(C)c(C(=O)Nc2ccc(F)c(C)c2)c(C)c1C(=O)C(=O)N[C@]1(C)CC[C@@H](O)CC1 [Example 696]	< 50 nM	> 30000 nM
CCN(CC)CCNC(=O)C(=O)c1c(C)c(C(=O)Nc2ccc(F)c(C)c2)c(C)n1C [Example 329, 5-(2-((2-(diethylamino)ethyl)amino)-2-oxoacetyl)-N-(4-fluoro-3-methylphenyl)-1,2,4-trimethyl-1H-pyrrole-3-carboxamide]	500 to 1000 nM	> 30000 nM
Cc1c(C(=O)Nc2ccc(F)c(F)c2)c2n(c1C(=O)C(=O)NCC(C)(C)O)CCCC2 [Example 462, N-(3,4-difluorophenyl)-3-(2-((2-hydroxy-2-methylpropyl)amino)-2-oxoacetyl)-2-methyl-5,6,7,8-tetrahydroindolizine--1 carboxamide]	50 to 499 nM	> 30000 nM
COC(=O)[C@H](NC(=O)C(=O)c1c(C)c(C(=O)Nc2ccc(F)c(C)c2)c(C)n1C)[C@@H](C)O [Example 46, methyl (2-(4-((4-fluoro-3-methylphenyl)carbamoyl)-1,3,5-trimethyl-1H-pyrrol-2-yl)-2-oxoacetyl)-D-allothreoninate]	< 50 nM	> 30000 nM
Cc1cc(NC(=O)c2c(C)c(C(=O)C(=O)N[C@]3(C(F)(F)F)CC[C@H](O)CC3)n(C)c2C)ccc1F [Example 282, N-(4-fluoro-3-methylphenyl)-5-(2-(((1s,4s)-4-hydroxy-1-(trifluoromethyl)cyclohexyl)amino)-2-oxoacetyl)-1,2,4-trimethyl-1H-pyrrole-3-carboxamide]	< 50 nM	> 30000 nM
